Several values for one entry are separate records, joined by “and”; a condition that tells them apart may be missing. Equal values may be shown once.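 Grown in 96-well plates, cells were treated for 48 hours with each compound at five concentrations. Insufficient inhibition: endpoint recorded as highest concentration tested. GI50 is the concentration that inhibits growth by half.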 Activity calls are given as the source filed them. Rule as the data show it: active = GI50 up to about 1.1 µM and inactive = higher.
What was measured:
Experiment in all cases: inhibition of tumour cell growth, NCI panel, 48 h
U-251 = test system: U-251
NCI-H23 = test system: NCI-H23
UO-31 = test system: UO-31
A549 = test system: A549
HOP-62 = test system: HOP-62
TK-10 = test system: TK-10
NCI-H226 = test system: NCI-H226
EKVX = test system: EKVX
CCRF-CEM = test system: CCRF-CEM
COLO 205 = test system: COLO 205
HCC 2998 = test system: HCC 2998
OVCAR-3 = test system: OVCAR-3
KM12 = test system: KM12
HCT-116 = test system: HCT-116
IGROV-1 = test system: IGROV-1
HCT-15 = test system: HCT-15
NCI-H522 = test system: NCI-H522
SK-MEL-2 = test system: SK-MEL-2
HOP-92 = test system: HOP-92
SK-OV-3 = test system: SK-OV-3
RPMI-8226 = test system: RPMI-8226
SNB-75 = test system: SNB-75
Malme-3M = test system: Malme-3M
HT-29 = test system: HT-29
MDA-MB-231 = test system: MDA-MB-231
MDA-N = test system: MDA-N
UACC-62 = test system: UACC-62
SK-MEL-5 = test system: SK-MEL-5
SW-620 = test system: SW-620
SF-295 = test system: SF-295
OVCAR-8 = test system: OVCAR-8
NCI/ADR-RES = test system: NCI/ADR-RES
SK-MEL-28 = test system: SK-MEL-28
OVCAR-5 = test system: OVCAR-5
OVCAR-4 = test system: OVCAR-4
SN12C = test system: SN12C
SF-539 = test system: SF-539
Hs-578T = test system: Hs-578T
CAKI-1 = test system: CAKI-1
RXF 393 = test system: RXF 393
PC-3 = test system: PC-3
ACHN = test system: ACHN
A498 = test system: A498
NCI-H460 = test system: NCI-H460
SNB-19 = test system: SNB-19
MOLT-4 = test system: MOLT-4
LOX IMVI = test system: LOX IMVI
MCF7 = test system: MCF7
SR = test system: SR
T47D = test system: T47D

COc1ccc2c(c1)[n+]([O-])c1ccccc1[n+]2[O-]
GI50 (U-251): 22.6 µM (inactive) and 37.4 µM (inactive)
GI50 (NCI-H23): 24.7 µM (inactive) and 37.5 µM (inactive)
GI50 (UO-31): 10.3 µM (inactive) and 10.2 µM (inactive)
GI50 (A549): 11 µM (inactive) and 21.7 µM (inactive)
GI50 (HOP-62): 29.1 µM (inactive) and 36.8 µM (inactive)
GI50 (TK-10): 34.1 µM (inactive) and 31.5 µM (inactive)
GI50 (NCI-H226): 26.4 µM (inactive) and 27.2 µM (inactive)
GI50 (EKVX): 34 µM (inactive) and 17.5 µM (inactive)
GI50 (CCRF-CEM): 22.8 µM (inactive) and 17.9 µM (inactive)
GI50 (COLO 205): 33.2 µM (inactive) and 19.1 µM (inactive)
GI50 (HCC 2998): 29.1 µM (inactive)
GI50 (OVCAR-3): 36.1 µM (inactive) and 44.8 µM (inactive)
GI50 (KM12): 40.5 µM (inactive) and 22.4 µM (inactive)
GI50 (HCT-116): 31.5 µM (inactive) and 47.2 µM (inactive)
GI50 (IGROV-1): 5.9 µM (inactive)
GI50 (HCT-15): 15.1 µM and 28.2 µM
GI50 (NCI-H522): 12.6 µM (inactive) and 14.6 µM (inactive)
GI50 (SK-MEL-2): 26.9 µM (inactive) and 21.8 µM (inactive)
GI50 (HOP-92): 47.1 µM (inactive)
GI50 (SK-OV-3): 24.7 µM (inactive)
GI50 (RPMI-8226): 20.3 µM (inactive) and 19.5 µM (inactive)
GI50 (SNB-75): 70.1 µM (inactive) and 35.2 µM (inactive)
GI50 (Malme-3M): 38.7 µM (inactive) and 37.7 µM (inactive)
GI50 (HT-29): 29.9 µM (inactive) and 51.5 µM (inactive)
GI50 (MDA-MB-231): 29.7 µM (inactive) and 37.7 µM (inactive)
GI50 (MDA-N): 73.8 µM (inactive)
GI50 (UACC-62): 23.7 µM (inactive) and 18.5 µM (inactive)
GI50 (SK-MEL-5): 18.4 µM (inactive) and 24.1 µM (inactive)
GI50 (SW-620): 24.7 µM (inactive) and 29.9 µM (inactive)
GI50 (SF-295): 21.6 µM (inactive) and 39.8 µM (inactive)
GI50 (OVCAR-8): 18.5 µM (inactive) and 17.2 µM (inactive)
GI50 (NCI/ADR-RES): 29.9 µM (inactive) and 53.3 µM (inactive)
GI50 (SK-MEL-28): 78.7 µM (inactive)
GI50 (OVCAR-5): 38.7 µM (inactive) and 65.9 µM (inactive)
GI50 (OVCAR-4): 25 µM (inactive)
GI50 (SN12C): 28.6 µM (inactive) and 21 µM (inactive)

c1csc(C(NC2=NCCO2)C2CC2)c1 (centres undefined)
GI50 (U-251): > 100 µM (inactive)
GI50 (SF-539): > 100 µM (inactive)
GI50 (NCI-H23): > 100 µM (inactive)
GI50 (UO-31): > 100 µM (inactive)
GI50 (Hs-578T): > 100 µM (inactive)
GI50 (A549): > 100 µM (inactive)
GI50 (HOP-62): > 100 µM (inactive)
GI50 (CAKI-1): > 100 µM (inactive)
GI50 (NCI-H226): > 100 µM (inactive)
GI50 (RXF 393): > 100 µM (inactive)
GI50 (EKVX): > 100 µM (inactive)
GI50 (PC-3): > 100 µM (inactive)
GI50 (ACHN): > 100 µM (inactive)
GI50 (A498): > 100 µM (inactive)
GI50 (COLO 205): > 100 µM (inactive)
GI50 (NCI-H460): > 100 µM (inactive)
GI50 (HCC 2998): > 100 µM (inactive)
GI50 (HCT-116): > 100 µM (inactive)
GI50 (IGROV-1): > 100 µM (inactive)
GI50 (HCT-15): > 100 µM
GI50 (NCI-H522): > 100 µM (inactive)
GI50 (SK-MEL-2): > 100 µM (inactive)
GI50 (HOP-92): 93.5 µM (inactive)
GI50 (SK-OV-3): > 100 µM (inactive)
GI50 (SNB-19): > 100 µM (inactive)
GI50 (RPMI-8226): > 100 µM (inactive)
GI50 (SNB-75): > 100 µM (inactive)
GI50 (HT-29): 83.9 µM (inactive)
GI50 (MDA-MB-231): > 100 µM (inactive)
GI50 (MOLT-4): > 100 µM (inactive)
GI50 (MDA-N): > 100 µM (inactive)
GI50 (UACC-62): > 100 µM (inactive)
GI50 (SK-MEL-5): > 100 µM (inactive)
GI50 (LOX IMVI): > 100 µM (inactive)
GI50 (SW-620): > 100 µM (inactive)
GI50 (SF-295): > 100 µM (inactive)
GI50 (OVCAR-8): > 100 µM (inactive)
GI50 (MCF7): > 100 µM (inactive)
GI50 (OVCAR-5): > 100 µM (inactive)
GI50 (SR): > 100 µM (inactive)
GI50 (T47D): > 100 µM (inactive)
GI50 (OVCAR-4): > 100 µM (inactive)
GI50 (SN12C): > 100 µM (inactive)

Reference: ChEMBL document CHEMBL1201862, “PubChem BioAssay data set” (2004)
